Reference: patent publication US20150274719A1, “AMINO-SUBSTITUTED IMIDAZO[1,2-A]PYRIDINECARBOXAMIDES AND THEIR USE” (BAYER PHARMA AKTIENGESELLSCHAFT, priority 2012, published 2015)

Target: T1, recombinant guanylate cyclase reporter cell line (Rattus norvegicus, UniProt P19686+P20595)
T1 construct: expressed in transfected cells; host or cells: recombinant reporter cell line
T1 sequence (P19686 1-690): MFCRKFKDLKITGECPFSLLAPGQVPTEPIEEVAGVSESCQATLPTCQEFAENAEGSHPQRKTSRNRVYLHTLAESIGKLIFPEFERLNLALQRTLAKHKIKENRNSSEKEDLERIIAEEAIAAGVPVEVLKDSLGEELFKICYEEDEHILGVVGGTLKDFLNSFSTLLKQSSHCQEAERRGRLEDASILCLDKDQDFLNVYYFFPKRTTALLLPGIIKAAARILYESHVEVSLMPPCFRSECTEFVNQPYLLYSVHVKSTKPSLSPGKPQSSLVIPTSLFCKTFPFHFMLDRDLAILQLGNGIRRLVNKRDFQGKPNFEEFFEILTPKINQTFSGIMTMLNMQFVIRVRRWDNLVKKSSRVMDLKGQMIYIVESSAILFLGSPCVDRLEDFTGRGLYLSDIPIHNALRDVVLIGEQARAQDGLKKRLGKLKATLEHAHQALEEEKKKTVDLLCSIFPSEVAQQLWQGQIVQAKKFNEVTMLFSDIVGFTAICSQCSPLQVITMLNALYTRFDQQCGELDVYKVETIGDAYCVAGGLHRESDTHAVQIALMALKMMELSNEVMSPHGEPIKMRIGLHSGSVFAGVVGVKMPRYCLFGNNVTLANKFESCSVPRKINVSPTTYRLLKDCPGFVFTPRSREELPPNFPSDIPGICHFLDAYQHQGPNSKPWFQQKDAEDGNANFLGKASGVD
T1 sequence (P20595 1-619): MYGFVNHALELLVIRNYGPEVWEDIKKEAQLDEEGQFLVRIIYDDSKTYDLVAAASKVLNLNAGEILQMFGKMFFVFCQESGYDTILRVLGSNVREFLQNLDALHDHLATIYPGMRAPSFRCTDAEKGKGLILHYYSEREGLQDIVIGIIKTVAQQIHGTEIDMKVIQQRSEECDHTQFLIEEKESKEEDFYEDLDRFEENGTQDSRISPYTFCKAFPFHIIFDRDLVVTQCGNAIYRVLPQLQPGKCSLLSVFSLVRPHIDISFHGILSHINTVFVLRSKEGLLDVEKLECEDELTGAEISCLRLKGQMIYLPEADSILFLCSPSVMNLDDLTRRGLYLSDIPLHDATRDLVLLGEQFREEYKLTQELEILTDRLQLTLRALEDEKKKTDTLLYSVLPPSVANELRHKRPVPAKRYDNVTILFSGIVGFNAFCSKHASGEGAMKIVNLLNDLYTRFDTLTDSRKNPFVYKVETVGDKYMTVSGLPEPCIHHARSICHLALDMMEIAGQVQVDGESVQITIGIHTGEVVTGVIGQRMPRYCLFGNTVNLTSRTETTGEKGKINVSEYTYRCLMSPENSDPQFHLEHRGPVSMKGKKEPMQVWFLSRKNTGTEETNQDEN
Test: Action on recombinant guanylate cyclase reporter cell line
Format: cell-based
Settings: in some cases mean values from individual determinations
How it was run: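 Reported value is the minimal effective concentration (MEC), in some cases a mean of single runs, taken from a recombinant rat guanylate cyclase reporter cell line.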

MEC (minimal effective concentration)	SMILES
1.00 µM	Cc1nc2c(OCc3c(F)cccc3F)cccn2c1C(=O)NCCC(C)(C)N [Example 117, N-(3-amino-3-methylbutyl)-8-[(2,6-difluorobenzyl)oxy]-2-methylimidazo[1,2-a]-pyridine-3-carboxamide]
0.30 µM	Cc1nc2c(OCc3c(F)cccc3F)cccn2c1C(=O)NC(C)[C@H](C)N (stereo partly drawn) [Example 120, N-[(3S)-3-Aminobutan-2-yl]-8-[(2,6-difluorobenzyl)oxy]-2-methylimidazo[1,2-a]pyridine-3-carboxamide]
0.30 µM	Cc1nc2c(OCc3c(F)cccc3F)cccn2c1C(=O)NC(C)[C@@H](C)N (stereo partly drawn) [Example 121, N-[(3R)-3-Aminobutan-2-yl]-8-[(2,6-difluorobenzyl)oxy]-2-methylimidazo[1,2-a]pyridine-3-carboxamide]
1.00 µM	Cc1nc2c(OCc3c(F)cccc3F)cccn2c1C(=O)NC(CN)COc1ccc(F)c(F)c1 (stereo not drawn) [Example 124, ent-N-[1-Amino-3-(3,4-difluorophenoxyl)propan-2-yl]-8-[(2,6-difluorobenzyl)oxy]-2-methyl-imidazo[1,2-a]pyridine-3-carboxamide ditrifluoroacetate]
1.00 µM	Cc1nc2c(OCc3c(F)cccc3F)cccn2c1C(=O)NCCNC(C)C [Example 130, 8-[(2,6-difluorobenzyl)oxy]-N-[2-(isopropylamino)ethyl]-2-methylimidazo[1,2-a]-pyridine-3-carboxamide]
3.00 µM	Cc1nc2c(OCc3c(F)cccc3F)cccn2c1C(=O)NCCN1CCS(=O)(=O)CC1 [Example 131, 8-[(2,6-difluorobenzyl)oxy]-N-[2-(1,1-dioxidothiomorpholin-4-yl)ethyl]-2-methylimidazo[1,2-a]pyridine-3-carboxamide]
3.00 µM	Cc1nc2c(OCc3c(F)cccc3F)cccn2c1C(=O)NCCN1CCN(C)CC1 [Example 133, 8-[(2,6-difluorobenzyl)oxy]-2-methyl-N-[2-(4-methylpiperazin-1-yl)ethyl]imidazo[1,2-a]-pyridine-3-carboxamide]
0.10 µM	Cc1cc(OCc2c(F)cccc2F)c2nc(C)c(C(=O)NCCN3CCOCC3)n2c1 [Example 136, 8-[(2,6-difluorobenzyl)oxy]-2,6-dimethyl-N-[2-(morpholin-4-yl)ethyl]imidazo[1,2-a]pyridine-3-carboxamide]
1.00 µM	Cc1cc(OCc2c(F)cccc2F)c2nc(C)c(C(=O)NCCN3CCN(C)CC3)n2c1 [Example 137, 8-[(2,6-difluorobenzyl)oxy]-2,6-dimethyl-N-[2-(4-methylpiperazin-1-yl)ethyl]imidazo[1,2-a]-pyridine-3-carboxamide]
1.00 µM	Cc1cc(OCc2c(F)cccc2F)c2nc(C)c(C(=O)NCCN3CCN(C(C)C)CC3)n2c1 [Example 139, 8-[(2,6-difluorobenzyl)oxy]-N-[2-(4-isopropylpiperazin-1-yl)ethyl]-2,6-dimethylimidazo[1,2-a]pyridine-3-carboxamide]
1.00 µM	Cc1nc2c(OCc3c(F)cccc3F)cc(F)cn2c1C(=O)NCC(C)(C)N [Example 140, N-(2-Amino-2-methylpropyl)-8-[(2,6-difluorobenzyl)oxy]-6-fluoro-2-methylimidazo[1,2-a]-pyridine-3-carboxamide]
3.00 µM	Cc1nc2c(OCc3c(F)cccc3F)cccn2c1C(=O)NC(C)(C)C(C)(C)N [Example 141, N-(3-Amino-2,3-dimethylbutan-2-yl)-8-[(2,6-difluorobenzyl)oxy]-2-methylimidazo[1,2-a]pyridine-3-carboxamide]
0.30 µM	Cc1nc2c(OCc3c(F)cccc3F)cccn2c1C(=O)NCCN1CCC(F)(F)C1 [Example 143, 8-[(2,6-difluorobenzyl)oxy]-N-[2-(3,3-difluoropyrrolidin-1-yl)ethyl]-2-methylimidazo[1,2-a]pyridine-3-carboxamide]
3.00 µM	COCCNCCNC(=O)c1c(C)nc2c(OCc3c(F)cccc3F)cccn12 [Example 144, 8-[(2,6-difluorobenzyl)oxy]-N-{2-[(2-methoxyethyl)amino]ethyl}-2-methylimidazo[1,2-a]pyridine-3-carboxamide]
3.00 µM	Cc1nc2c(OCc3c(F)cccc3F)cccn2c1C(=O)NCC(C)(C)N(C)C [Example 145, 8-[(2,6-difluorobenzyl)oxy]-N-[2-(dimethylamino)-2-methylpropyl]-2-methylimidazo[1,2-a]pyridine-3-carboxamide]
1.00 µM	Cc1nc2c(OCc3c(F)cccc3F)cccn2c1C(=O)NCCN(CC(F)F)C1CC1 [Example 146, N-{2-[cyclopropyl(2,2-difluoroethyl)amino]ethyl}-8-[(2,6-difluorobenzyl)oxy]-2-methylimidazo[1,2-a]-pyridine-3-carboxamide]
1.00 µM	Cc1nc2c(OCc3c(F)cccc3F)cc(Cl)cn2c1C(=O)NCC(C)(C)N1CCCC1 [Example 148, 6-chloro-8-[(2,6-difluorobenzyl)oxy]-2-methyl-N-[2-methyl-2-(pyrrolidin-1-yl)-propyl]imidazo[1,2-a]pyridine-3-carboxamide]
1.00 µM	Cc1nc2c(OCc3c(F)cccc3F)cc(Cl)cn2c1C(=O)NCCNC(C)C [Example 149, 6-chloro-8-[(2,6-difluorobenzyl)oxy]-N-[2-(isopropylamino)ethyl]-2-methylimidazo[1,2-a]-pyridine-3-carboxamide]
0.10 µM	Cc1nc2c(OCc3c(F)cccc3F)cc(Cl)cn2c1C(=O)NCCN(CC(F)F)C1CC1 [Example 150, 6-chloro-N-{2-[cyclopropyl(2,2-difluoroethyl)-amino]ethyl}-8-[(2,6-difluorobenzyl)oxy]-2-methylimidazo[1,2-a]pyridine-3-carboxamide]
0.10 µM	Cc1nc2c(OCc3c(F)cccc3F)cc(Cl)cn2c1C(=O)NCCN1CCC(F)(F)CC1 [Example 151, 6-chloro-8-[(2,6-difluorobenzyl)oxy]-N-[2-(4,4-difluoropiperidin-1-yl)ethyl]-2-methylimidazo[1,2-a]pyridine-3-carboxamide]
1.00 µM	Cc1nc2c(OCc3c(F)cccc3F)cc(Cl)cn2c1C(=O)NCCN1CCN(C(C)C)CC1 [Example 152, 6-chloro-8-[(2,6-difluorobenzyl)oxy]-N-[2-(4-isopropylpiperazin-1-yl)ethyl]-2-methyl-imidazo[1,2-a]pyridine-3-carboxamide]
1.00 µM	COCCNCCNC(=O)c1c(C)nc2c(OCc3c(F)cccc3F)cc(Cl)cn12 [Example 153, 6-chloro-8-[(2,6-difluorobenzyl)oxy]-N-{2-[(2-methoxyethyl)amino]ethyl}-2-methylimidazo[1,2-a]pyridine-3-carboxamide]
1.00 µM	Cc1nc2c(OCc3c(F)cccc3F)cc(Cl)cn2c1C(=O)NCCN1CCN(C)CC1 [Example 154, 6-chloro-8-[(2,6-difluorobenzyl)oxy]-2-methyl-N-[2-(4-methylpiperazin-1-yl)ethyl]imidazo[1,2-a]pyridine-3-carboxamide]
3.00 µM	Cc1nc2c(OCc3c(F)cccc3F)cc(Cl)cn2c1C(=O)NCCN1CC(N2CCCC2)C1 [Example 156, 6-chloro-8-[(2,6-difluorobenzyl)oxy]-2-methyl-N-{2-[3-(pyrrolidin-1-yl)azetidin-1-yl]ethyl}-imidazo[1,2-a]pyridine-3-carboxamide]
0.30 µM	Cc1nc2c(OCc3c(F)cccc3F)cc(Cl)cn2c1C(=O)NCCN1C[C@@H](C)O[C@@H](C)C1 [Example 158, 6-chloro-8-[(2,6-difluorobenzyl)oxy]-N-{2-[(2R,6S)-2,6-dimethylmorpholin-4-yl]ethyl}-2-methylimidazo[1,2-a]pyridine-3-carboxamide]
